Experiments:
Assay in all cases: relative viability (nuclei count vs DMSO), 5 days (fraction); higher = more cells survive
Palbociclib = compound: CC(=O)c1c(C)c2cnc(Nc3ccc(N4CCNCC4)cn3)nc2n(C2CCCC2)c1=O [Palbociclib]
Summary of the method: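 Viability was read as treated-well nuclei divided by vehicle-well nuclei, using the median across plates. Lung cancer cell lines in 1536-well plates were kept overnight at 37 °C, pinned with five √10-spaced library-drug doses, and after 5 days were Hoechst-stained, imaged at 4× and counted in MetaXpress. Plates passed only with control CV below 25% and at least one doubling.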

Palbociclib + Pemetrexed = compound: CC(=O)c1c(C)c2cnc(Nc3ccc(N4CCNCC4)cn3)nc2n(C2CCCC2)c1=O [Palbociclib] + Nc1nc2[nH]cc(CCc3ccc(C(=O)N[C@@H](CCC(=O)O)C(=O)O)cc3)c2c(=O)[nH]1 [Pemetrexed] (partner 0.2 µM)
Summary of the method: (§1)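 Relative viability divides the nuclei count in treated wells by that in vehicle wells. Lung cancer cell lines were seeded in 1536-well plates, dosed by pin tool the next day, and fixed and stained after 5 days in one step with final 0.05% Triton X-100, 1% formaldehyde and 1 ug/ml Hoechst. Dosing was a single drug or a fixed anchor-drug dose plus five library-drug doses (not always all listed) in √10 steps, and values are medians of duplicate plates imaged at 4×.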

Palbociclib + Bortezomib = compound: CC(=O)c1c(C)c2cnc(Nc3ccc(N4CCNCC4)cn3)nc2n(C2CCCC2)c1=O [Palbociclib] + CC(C)C[C@H](NC(=O)[C@H](Cc1ccccc1)NC(=O)c1cnccn1)B(O)O [Bortezomib] (partner 0.002 µM)
Summary of the method: as §1

| Cell Line | relative viability (Palbociclib; 0.01 µM) | relative viability (Palbociclib; 0.03162 µM) | relative viability (Palbociclib; 0.1 µM) | relative viability (Palbociclib; 0.3162 µM) | relative viability (Palbociclib; 0.5 µM, anchor plate) | relative viability (Palbociclib; 1 µM) | relative viability (Palbociclib + Pemetrexed; first compound 0.01 µM) | relative viability (Palbociclib + Pemetrexed; first compound 0.1 µM) | relative viability (Palbociclib + Pemetrexed; first compound 0.3162 µM) | relative viability (Palbociclib + Pemetrexed; first compound 1 µM) | relative viability (Palbociclib + Bortezomib; first compound 0.01 µM) | relative viability (Palbociclib + Bortezomib; first compound 0.03162 µM) | relative viability (Palbociclib + Bortezomib; first compound 0.1 µM) | relative viability (Palbociclib + Bortezomib; first compound 0.3162 µM) | relative viability (Palbociclib + Bortezomib; first compound 1 µM) | relative viability (Palbociclib + Pemetrexed; first compound 0.03162 µM) |
| --- | --- | --- | --- | --- | --- | --- | --- | --- | --- | --- | --- | --- | --- | --- | --- | --- |
| LU99A | 0.91 | 0.711 | 0.924 | 0.928 | 0.414 | 0.65 | 0.176 | 0.158 | 0.171 | 0.19 | 0.976 | 0.935 | 1 | 1.09 | 0.67 |  |
| HCC-366 | 1 |  | 0.977 | 1 | 0.383 | 0.859 | 0.155 | 0.162 | 0.138 | 0.155 | 0.953 |  | 0.965 | 0.975 | 0.616 |  |
| HOP-62 | 0.953 |  | 0.87 | 0.795 | 0.451 | 0.663 | 0.281 | 0.306 | 0.252 | 0.269 | 0.418 |  | 0.741 | 0.612 | 0.57 |  |
| NCI-H1734 | 0.951 | 0.592 | 0.75 | 0.659 | 0.345 | 0.538 | 0.423 | 0.404 | 0.407 | 0.4 | 0.896 | 0.532 | 0.661 | 0.619 | 0.409 | 0.466 |
| NCI-H3122 | 0.977 | 0.944 | 0.866 | 0.797 | 0.192 | 0.456 | 0.205 | 0.192 | 0.186 | 0.188 | 1.04 | 1.02 | 0.919 | 0.745 | 0.513 | 0.184 |
| RERF-LC-KJ | 1.02 | 0.871 | 0.968 | 1.02 | 1.09 | 1.02 | 0.437 | 0.432 | 0.486 | 0.469 | 1.17 | 1.12 | 1.11 | 1.04 | 1.15 | 0.45 |
| NCI-H2087 | 1.08 | 0.546 | 0.815 | 0.586 | 0.242 | 0.364 | 0.683 | 0.621 | 0.537 | 0.393 | 0.803 | 0.81 | 0.702 | 0.485 | 0.372 | 0.664 |
| ABC-1 | 1.02 | 0.853 | 0.81 | 0.785 | 0.755 | 0.686 |  |  |  |  | 0.323 | 0.32 | 0.232 | 0.292 | 0.394 |  |
| NCI-H2342 | 1.01 | 0.846 | 0.849 | 0.785 | 0.527 | 0.621 | 0.766 | 0.861 | 0.747 | 0.556 |  |  |  |  |  | 0.691 |
| NCI-H1793 | 1.02 | 0.54 | 0.77 | 0.682 | 0.325 | 0.327 | 0.975 | 0.676 | 0.617 | 0.339 |  |  |  |  |  | 0.653 |
| SW 900 | 1.01 |  | 0.768 | 0.565 | 0.565 | 0.541 | 0.46 | 0.528 | 0.51 | 0.422 |  |  |  |  |  |  |
| NCI-H358 | 0.986 | 0.675 | 0.718 | 0.543 | 0.138 | 0.277 | 0.167 | 0.166 | 0.186 | 0.135 |  |  |  |  |  | 0.163 |
| A549 | 0.983 | 0.71 | 0.68 | 0.692 |  | 0.448 |  |  |  |  |  |  |  |  |  |  |
| NCI-H1299 | 0.981 | 0.977 | 0.906 | 0.839 |  | 0.729 |  |  |  |  | 1 | 0.871 | 0.925 | 0.873 | 0.72 |  |
| NCI-H727 | 0.814 | 0.786 | 0.653 | 0.659 | 0.625 | 0.564 |  |  |  |  | 0.963 | 0.649 | 0.491 | 0.465 | 0.469 |  |
| Calu-6 | 1.06 | 0.919 | 0.833 | 0.79 |  | 0.588 |  |  |  |  | 0.926 | 0.95 | 0.727 | 0.89 | 0.412 |  |
| LK-2 | 1 | 0.736 | 0.8 | 0.965 | 0.727 | 0.803 | 0.283 | 0.205 | 0.205 | 0.238 |  |  |  |  |  | 0.175 |
| NCI-H2170 | 0.993 | 0.856 | 0.94 | 0.894 | 0.382 | 0.704 | 0.269 | 0.224 | 0.242 | 0.222 |  |  |  |  |  | 0.277 |
| NCI-H1944 | 0.971 | 0.762 | 0.886 | 0.885 | 0.345 | 0.532 | 0.598 | 0.589 | 0.477 | 0.367 |  |  |  |  |  | 0.57 |
| IA-LM | 0.901 | 0.54 | 0.559 | 0.428 |  | 0.162 |  |  |  |  | 0.606 | 0.49 | 0.469 | 0.348 | 0.134 |  |
| SK-MES-1 | 0.931 | 0.852 | 0.683 | 0.648 | 0.327 | 0.361 | 0.857 | 0.665 | 0.596 | 0.363 |  |  |  |  |  | 0.802 |
| NCI-H1648 | 1.12 | 0.451 | 0.667 | 0.764 | 0.284 | 0.336 | 0.76 | 0.562 | 0.582 | 0.411 |  |  |  |  |  | 0.549 |
| NCI-H1395 | 1.01 | 0.825 | 0.797 | 0.858 | 0.647 | 0.597 | 0.797 | 0.786 | 0.838 | 0.65 |  |  |  |  |  | 0.812 |
| NCI-H1703 | 0.912 | 0.676 | 0.842 | 0.444 |  | 0.345 |  |  |  |  | 0.266 | 0.23 | 0.197 | 0.226 | 0.188 |  |
